Experimental findings from patent US20220402873A1, “NOVEL P62 LIGAND COMPOUND, AND COMPOSITION CONTAINING SAME FOR PREVENTING, AMELIORATING, OR TREATING PROTEINOPATHIES” (AUTOTAC INC., priority 2019, published 2022) are described below.

What all share (assay type): cell-based
Assay [1] deals with T1, p62 protein (Homo sapiens, UniProt Q13501). The assay is described as follows: Oligomerization activity of p62 protein by immunoblotting. Set-up: endogenous in cells. To be noted: HEK293 cell line lysate treated with test compounds for 2 hours at room temperature. An excerpt:
In order to evaluate the oligomerization activity efficacy of p62 protein of the compounds (Examples 1-20), HEK293 cell line, which is human embryonic kidney-derived cell, was collected. As representative compounds of the present compounds, the compounds of Examples 1-20 (Example 1 (ATB10048), Example 2 (ATB10047), Example 3 (ATB10049), Example 4 (ATB10051), Example 5 (ATB10050), Example 6 (ATB10056), Example 7 (ATB10052), Example 8 (ATB10057), Example 9 (ATB10060), Example 10 (ATB10072), Example 11 (ATB10075), Example 12 (ATB10078), Example 13 (ATB10079), Example 14 (ATB10080), Example 15 (ATB10081), Example 16 (ATB10087), Example 17 (ATB10096), Example 18 (ATB10097), Example 19 (ATB10099) and Example 20 (ATB10100)) were selected, and in order to measure the activation and oligomerization of the p62 protein in cells according to the treatment with these selected representative compounds, each cell was dispensed into a 100 phi dish. The cells were collected after additional culture for 24 hours so that the cells were completely attached to the surface of the plate, and 100 ul of lysis buffer (20 mM Tris (pH 7.4), 150 mM NaCl, 1% Triton X-100, 2 mM NaF, 2 mM EDTA, 2 mM beta-glycerophosphate, 5 mM sodium orthovanadate, 1 mM PMSF, leupeptin, aproteinin) was injected to each sample, and the cells were lysed. Based on the measured total protein concentration, each sample was treated with the test compounds for 2 hours at room temperature, and then a sample buffer was added and reacted at 95° C. for 10 minutes. 25 ul was taken from the samples after the reaction was completed and dispensed into each well of an acrylamide gel, and immunoblotting was performed.
A general note: A western blot detects proteins with antibodies after separation by electrophoresis.

The target of assay [2] is T1, p62 protein. The assay is described as follows: Activity of p62 protein and delivery of ubiquitinated substrate proteins to autophagy by immunofluorescence staining (p62, FK2) and confocal microscopy. To be noted: Hela cell line, 1 uM, 6 hours. Set-up: endogenous in cells; host or cells: HeLa. On the procedure: Immunofluorescence staining was performed using p62 and FK2 as markers to determine the level of the activity of p62 protein of the compounds (Examples 1-20). In order to determine the level of p62 activity and autophagy activity by the novel p62 ligand and its isomers in the cultured cells, the Hela cell line derived from cervical cancer patients was treated with a novel p62 ligand compound (Example 1 (ATB10048), Example 2 (ATB10047), Example 3 (ATB10049), Example 5 (ATB10050), Example 4 (ATB10051), Example 7 (ATB10052), Example 6 (ATB10056), Example 8 (ATB10057), Example 9 (ATB10060), Example 10 (ATB10072), Example 11 (ATB10075), Example 12 (ATB10078), […], Example 14 (ATB10080), Example 15 (ATB10081), Example 16 (ATB10087)), Example 17 (ATB0096), Example 18 (ATB10097), Example 19 (ATB10099) and Example 20 (ATB10100)) and cultured, and then the level of puncta expression and location of FK2, which was a marker of the protein to be delivered to and degraded in the autophagy through the mediation of the intracellular ubiquitinated p62, and the puncta local co-existence with p62 were observed.
For immunofluorescence staining, a cover glass was placed on a 24-well plate, cells were dispensed and cultured for 24 hours, and then 1 uM of the novel p62 ligand according to the present invention was treated. After culturing for an additional 6 hours for the action of the compound, the medium was removed, and the cells were fixed using formaldehyde at room temperature. In order to prevent non-specific staining, the cells were reacted with a blocking solution at room temperature for 1 hour, and then the LC3 antibody diluted at a certain ratio was treated with a blocking solution and then reacted at room temperature for 1 hour. After the antibody-treated cells were washed 3 times with PBS, the goat-derived secondary antibody was diluted at a certain ratio using the blocking solution, and then reacted at room temperature for 30 minutes. After further washing with PBS three times, and DAPI staining was performed for intracellular nuclear staining. Then, the level of expression of p62 or FK2, the level of intracellular puncta formation, and the level of coexistence in the cells were observed by a confocal microscope.

In assay [3] the target is T1, p62 protein. The assay is described as follows: Activity of p62 protein and delivery to autophagosome by immunofluorescence staining (p62, LC3-GFP) and confocal microscopy. Also noted: endogenous in cells; host or cells: HeLa. To be noted: Hela-LC3-GFP cell line, 5 uM, 24 hours. The protocol: Immunofluorescence staining was performed using p62 and FK2 marker to determine the level of activity of p62 protein of the compounds (Examples 1-20). In order to determine the level of p62 activity and autophagy activity by the novel p62 ligand and its isomers in cultured cells, Hela-LC3-GFP cell line derived from cervical cancer patients was treated with the novel p62 ligand compounds (Example 2 (ATB10047), Example 3 (ATB10049), Example 4 (ATB10051), Example 6 (ATB10056), Example 9 (ATB10060), Example 12 (ATB10078), Example 16 (ATB10087) and Example (ATB10097)) and cultured. Then, the level of puncta expression and location of LC3-GFP, which is an essential autophagosome marker for macroautophagy, and the puncta local co-existence of p62 were observed.
For immunofluorescence staining, a cover glass was placed on a 24-well plate, cells were dispensed and cultured for 24 hours, and then treated with 5 uM of the novel p62 ligand according to the present invention. The cells were further cultured for an additional 24 hours for the action of the compound, the medium was removed, and the cells were fixed using formaldehyde at room temperature. In order to prevent non-specific staining, the cells were reacted with a blocking solution at room temperature for 1 hour, and then the LC3 antibody diluted at a certain ratio was treated with the blocking solution and then reacted at room temperature for 1 hour. After the antibody-treated cells were washed 3 times with PBS, the goat-derived secondary antibody was diluted at a certain ratio using the blocking solution, and then reacted at room temperature for 30 minutes. The cells were washed again with PBS three times and subjected to DAPI staining for intracellular nuclear staining, and then the level of expression of p62 or LC3, intracellular puncta formation, and intracellular coexistence level were observed by a confocal microscope.

T1 sequence (Q13501 whole entry): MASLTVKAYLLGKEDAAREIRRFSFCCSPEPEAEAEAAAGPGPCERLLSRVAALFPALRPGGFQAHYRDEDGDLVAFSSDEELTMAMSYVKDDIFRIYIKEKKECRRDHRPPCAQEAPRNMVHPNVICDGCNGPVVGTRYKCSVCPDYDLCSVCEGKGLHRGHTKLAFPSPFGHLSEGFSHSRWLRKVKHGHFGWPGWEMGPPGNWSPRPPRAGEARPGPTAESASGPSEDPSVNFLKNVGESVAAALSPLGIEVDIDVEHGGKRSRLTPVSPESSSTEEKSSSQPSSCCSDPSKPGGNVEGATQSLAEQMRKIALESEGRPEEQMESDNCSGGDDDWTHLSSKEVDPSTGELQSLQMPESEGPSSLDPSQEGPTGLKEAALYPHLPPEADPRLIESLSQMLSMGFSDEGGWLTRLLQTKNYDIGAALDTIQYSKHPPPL

Regarding `O=C(CO)NCc1cccc(OCc2ccccc2)n1` [Example 1], the “p62 protein oligomerization activity (immunoblot, FIGS. 2a to 2d)” value (“p62 protein oligomerization activity” below) at p62 protein [1] is “increasing the p62 protein oligomerization activity”. The “delivery of ubiquitinated proteins marked with FK2 to autophagosome mediated by p62 (FIGS. 3a to 3d)” value (from here on “delivery”) on p62 protein [2] is “show the efficacy of delivering the proteins to be delivered to and degraded by autophagosome”.

On to `OCCNCc1cccc(OCc2ccccc2)n1` [Example 2, 2-(((6-(benzyloxy)pyridin-2-yl)methyl)amino)ethan-1-ol], for which the “targeting of activated, oligomerized p62 protein to the autophagosome (FIG. 4)” value at p62 protein [3] is “show the efficacy of targeting them to the autophagosome”. Also, on p62 protein [1], the “p62 protein oligomerization activity” value is “increasing the p62 protein oligomerization activity”. Further, the “delivery” value on p62 protein [2] was “show the efficacy of delivering the proteins to be delivered to and degraded by autophagosome”.

As to `OCCNCc1cc(OCc2ccccc2)ccn1` [Example 5, 2-(((4-(benzyloxy)pyridin-2-yl)methyl)amino)ethan-1-ol], the “p62 protein oligomerization activity” value on p62 protein [1] is on record as “increasing the p62 protein oligomerization activity”. Also, the “delivery” value on p62 protein [2] was “show the efficacy of delivering the proteins to be delivered to and degraded by autophagosome”.

`O=C(CO)NCc1cc(OCc2ccccc2)c(OCc2ccccc2)cn1` [Example 7, N-((4,5-bis(benzyloxy)pyridin-2-yl)methyl)-2-hydroxyacetamide]: at p62 protein [1], the “p62 protein oligomerization activity” value is on record as “increasing the p62 protein oligomerization activity”. The “delivery” value at p62 protein [2] was “show the efficacy of delivering the proteins to be delivered to and degraded by autophagosome”.

For the molecule `OCCNCc1cc(OCc2ccccc2)c(OCc2ccccc2)cn1` [Example 8, 2-(((4,5-bis(benzyloxy)pyridin-2-yl)methyl)amino)ethan-1-ol], on p62 protein [1], the “p62 protein oligomerization activity” value is on record as “increasing the p62 protein oligomerization activity”. For the same molecule, the “delivery” value at p62 protein [2] is “show the efficacy of delivering the proteins to be delivered to and degraded by autophagosome”.

As to `OCCNC[C@@H](O)COc1cc(OCc2ccccc2)ccn1` [Example 10, (R)-1-((4-(benzyloxy)pyridin-2-yl)oxy)-3-((2-hydroxyethyl)amino)propan-2-ol], the “p62 protein oligomerization activity” value at p62 protein [1] is “increasing the p62 protein oligomerization activity”. For the same molecule, the “delivery” value on p62 protein [2] is “show the efficacy of delivering the proteins to be delivered to and degraded by autophagosome”.

Consider `COc1ccc(OC[C@H](O)CNCCO)nc1OCc1ccccc1` [Example 11, (R)-1-((6-(benzyloxy)-5-methoxypyridin-2-yl)oxy)-3-((2-hydroxyethyl)amino)propan-2-ol], for which, at p62 protein [1], the “p62 protein oligomerization activity” value was “increasing the p62 protein oligomerization activity”. Also, the “delivery” value at p62 protein [2] was “show the efficacy of delivering the proteins to be delivered to and degraded by autophagosome”.

Regarding `OCCNC[C@@H](O)COc1cncc(OCc2ccccc2)c1` [Example 13, (R)-1-((5-(benzyloxy)pyridin-3-yl)oxy)-3-((2-hydroxyethyl)amino)propan-2-ol], at p62 protein [1], the “p62 protein oligomerization activity” value is reported as “increasing the p62 protein oligomerization activity”. Moreover, the “delivery” value at p62 protein [2] was “show the efficacy of delivering the proteins to be delivered to and degraded by autophagosome”.

On to `OCCNC[C@@H](O)COc1cccc(NCc2ccccc2)n1` [Example 14, (R)-1-((6-(benzylamino)pyridin-2-yl)oxy)-3-((2-hydroxyethyl)amino)propan-2-ol], for which, at p62 protein [1], the “p62 protein oligomerization activity” value is recorded as “increasing the p62 protein oligomerization activity”. The “delivery” value at p62 protein [2] is “show the efficacy of delivering the proteins to be delivered to and degraded by autophagosome”.

For `OCCNC[C@@H](O)CNc1cccc(OCc2ccccc2)n1` [Example 15, (R)-1-((6-(benzyloxy)pyridin-2-yl)amino)-3-((2-hydroxyethyl)amino)propan-2-ol], the “p62 protein oligomerization activity” value on p62 protein [1] is “increasing the p62 protein oligomerization activity”. Moreover, the “delivery” value at p62 protein [2] was “show the efficacy of delivering the proteins to be delivered to and degraded by autophagosome”.

`OCCNCc1ccc(OCc2ccccc2)s1` [Example 17, 2-(((5-(benzyloxy)thiophen-2-yl)methyl)amino)ethan-1-ol]: at p62 protein [1], the “p62 protein oligomerization activity” value was “increasing the p62 protein oligomerization activity”. Besides, on p62 protein [2], the “delivery” value was “show the efficacy of delivering the proteins to be delivered to and degraded by autophagosome”.

Regarding `O=C(CO)NCc1ccc(CCc2ccccc2)o1` [Example 19, 2-hydroxy-N-((5-phenethylfuran-2-yl)methyl) acetamide], the “p62 protein oligomerization activity” value on p62 protein [1] is “increasing the p62 protein oligomerization activity”. The “delivery” value at p62 protein [2] is “show the efficacy of delivering the proteins to be delivered to and degraded by autophagosome”.

Regarding `O=C(O)CNCc1ccc(OCCc2ccccc2)s1` [Example 20, ((5-phenethoxythiophen-2-yl)methyl)glycine], at p62 protein [1], the “p62 protein oligomerization activity” value is recorded as “increasing the p62 protein oligomerization activity”. Besides, the “delivery” value on p62 protein [2] is “show the efficacy of delivering the proteins to be delivered to and degraded by autophagosome”.
